Results on four compounds are retold here after paper PMC6848746 (Psychopharmacology, 2019).

In one assay the target is 5-HT1E (Homo sapiens, UniProt P28566). The experiment in a line: Radioligand binding.
For the next assay, the target named is 5-HT2B (Homo sapiens, UniProt P41595). Nature of the assay: Radioligand binding.
The next assay deals with T1, 5-HT2C (Homo sapiens, UniProt P28335).
T1 sequence (P28335 33-458): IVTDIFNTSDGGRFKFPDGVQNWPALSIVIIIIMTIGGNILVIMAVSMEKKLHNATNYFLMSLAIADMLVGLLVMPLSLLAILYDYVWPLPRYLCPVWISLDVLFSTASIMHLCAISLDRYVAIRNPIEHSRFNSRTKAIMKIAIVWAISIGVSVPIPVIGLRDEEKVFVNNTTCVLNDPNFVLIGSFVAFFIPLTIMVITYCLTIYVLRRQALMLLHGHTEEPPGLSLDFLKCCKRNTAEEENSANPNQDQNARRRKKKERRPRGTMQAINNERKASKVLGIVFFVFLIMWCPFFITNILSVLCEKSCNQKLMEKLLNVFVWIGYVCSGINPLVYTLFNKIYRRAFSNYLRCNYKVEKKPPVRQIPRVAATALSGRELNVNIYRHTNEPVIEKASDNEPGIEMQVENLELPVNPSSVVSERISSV
Nature of the assay: Radioligand binding.

The next assay deals with 5-HT7 (Homo sapiens, UniProt P34969). Nature of the assay: Radioligand binding.
The target in the next assay is T2, α1B (Homo sapiens, UniProt P35368).
T2 sequence (P35368 1-520): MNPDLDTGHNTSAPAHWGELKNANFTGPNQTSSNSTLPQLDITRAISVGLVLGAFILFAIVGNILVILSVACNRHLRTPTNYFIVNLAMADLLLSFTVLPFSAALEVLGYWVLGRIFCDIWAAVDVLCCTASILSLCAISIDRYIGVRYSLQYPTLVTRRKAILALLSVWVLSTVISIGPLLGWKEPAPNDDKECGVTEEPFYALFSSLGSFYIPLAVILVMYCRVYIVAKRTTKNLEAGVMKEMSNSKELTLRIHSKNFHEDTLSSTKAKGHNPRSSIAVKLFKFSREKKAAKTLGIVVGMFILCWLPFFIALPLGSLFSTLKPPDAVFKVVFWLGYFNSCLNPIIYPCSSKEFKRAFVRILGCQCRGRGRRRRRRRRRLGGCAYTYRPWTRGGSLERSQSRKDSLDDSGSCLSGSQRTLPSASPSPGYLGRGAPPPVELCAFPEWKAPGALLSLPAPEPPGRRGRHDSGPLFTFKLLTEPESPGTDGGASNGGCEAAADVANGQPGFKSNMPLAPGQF
Nature of the assay: Radioligand binding.

For a further assay, the target named is T3, α1D (Homo sapiens, UniProt P25100).
T3 sequence (P25100 1-572): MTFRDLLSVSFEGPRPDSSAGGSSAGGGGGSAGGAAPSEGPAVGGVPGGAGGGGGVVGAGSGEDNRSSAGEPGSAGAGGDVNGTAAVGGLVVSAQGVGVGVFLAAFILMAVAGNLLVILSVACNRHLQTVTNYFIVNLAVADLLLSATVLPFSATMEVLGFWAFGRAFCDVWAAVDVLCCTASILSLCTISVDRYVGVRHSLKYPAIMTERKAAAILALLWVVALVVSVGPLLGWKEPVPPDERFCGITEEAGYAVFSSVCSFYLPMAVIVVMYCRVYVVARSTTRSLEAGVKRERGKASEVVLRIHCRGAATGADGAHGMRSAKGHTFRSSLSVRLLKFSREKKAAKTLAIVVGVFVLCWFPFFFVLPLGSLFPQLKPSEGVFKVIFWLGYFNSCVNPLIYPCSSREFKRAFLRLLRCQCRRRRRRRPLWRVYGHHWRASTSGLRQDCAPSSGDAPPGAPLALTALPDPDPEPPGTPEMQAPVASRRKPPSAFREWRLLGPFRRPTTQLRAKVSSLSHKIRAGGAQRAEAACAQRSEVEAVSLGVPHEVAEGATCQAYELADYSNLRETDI
The experiment in a line: Radioligand binding.

A further assay deals with T4, α2C (Homo sapiens, UniProt P18825).
T4 sequence (P18825 1-462): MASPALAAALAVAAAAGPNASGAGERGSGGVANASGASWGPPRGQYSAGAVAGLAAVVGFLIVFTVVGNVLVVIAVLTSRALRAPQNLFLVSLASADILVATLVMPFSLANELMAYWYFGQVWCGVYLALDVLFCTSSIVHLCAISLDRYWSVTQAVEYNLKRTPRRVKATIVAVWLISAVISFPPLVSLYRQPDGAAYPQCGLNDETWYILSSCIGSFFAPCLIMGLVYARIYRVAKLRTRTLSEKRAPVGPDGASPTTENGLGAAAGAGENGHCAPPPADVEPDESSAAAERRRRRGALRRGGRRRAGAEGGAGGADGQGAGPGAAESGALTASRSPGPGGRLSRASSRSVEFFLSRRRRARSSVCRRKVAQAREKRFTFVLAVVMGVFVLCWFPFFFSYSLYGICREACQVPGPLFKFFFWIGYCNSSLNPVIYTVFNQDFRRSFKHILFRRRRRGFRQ
Nature of the assay: Radioligand binding. To be noted: for fold lower affinity for α2C compared to 2-AI: binding, [3H]rauwolscine.

The target in a further assay is β1 (Homo sapiens, UniProt P08588). The experiment in a line: Radioligand binding.
For a further assay, the target named is D3 (Homo sapiens, UniProt P35462). The experiment in a line: Radioligand binding.
The target in another assay is DAT (Homo sapiens, UniProt Q01959). Nature of the assay: Radioligand binding.
Another assay deals with NET (Homo sapiens, UniProt P23975). The experiment in a line: Radioligand binding.
In a further assay the test system is rats. To be noted: drug discrimination, cited from earlier work.
[1] abbreviates: ref Oberlender and Nichols, 1991.

Molecules are shown by their SMILES. Read-outs that look alike come from different tables or passages of the source.

Chain of 5-HT7 (P34969 whole entry): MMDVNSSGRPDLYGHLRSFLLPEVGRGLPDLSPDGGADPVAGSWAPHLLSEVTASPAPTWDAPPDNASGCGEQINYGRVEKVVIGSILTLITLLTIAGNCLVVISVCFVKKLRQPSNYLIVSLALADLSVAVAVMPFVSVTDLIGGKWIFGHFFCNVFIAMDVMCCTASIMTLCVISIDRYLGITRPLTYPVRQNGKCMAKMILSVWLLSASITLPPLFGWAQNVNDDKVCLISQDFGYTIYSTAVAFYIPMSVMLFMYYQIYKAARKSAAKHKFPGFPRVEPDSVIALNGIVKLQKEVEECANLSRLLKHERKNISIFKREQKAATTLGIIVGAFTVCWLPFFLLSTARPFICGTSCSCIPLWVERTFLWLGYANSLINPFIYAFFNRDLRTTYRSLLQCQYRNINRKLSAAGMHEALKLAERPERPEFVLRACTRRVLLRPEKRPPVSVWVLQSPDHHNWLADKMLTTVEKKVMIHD
Chain of β1 (P08588 whole entry): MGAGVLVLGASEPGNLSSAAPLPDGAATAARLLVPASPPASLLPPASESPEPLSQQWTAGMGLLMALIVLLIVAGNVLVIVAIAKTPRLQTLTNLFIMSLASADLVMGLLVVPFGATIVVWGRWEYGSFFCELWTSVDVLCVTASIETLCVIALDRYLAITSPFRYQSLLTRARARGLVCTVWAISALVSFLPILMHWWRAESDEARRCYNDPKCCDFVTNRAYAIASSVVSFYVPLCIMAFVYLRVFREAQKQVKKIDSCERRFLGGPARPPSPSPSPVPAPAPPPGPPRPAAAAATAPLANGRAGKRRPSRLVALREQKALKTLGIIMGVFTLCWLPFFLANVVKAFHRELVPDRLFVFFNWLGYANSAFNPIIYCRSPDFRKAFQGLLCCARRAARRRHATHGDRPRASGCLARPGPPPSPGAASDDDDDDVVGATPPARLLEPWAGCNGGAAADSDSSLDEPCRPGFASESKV
Chain of D3 (P35462 whole entry): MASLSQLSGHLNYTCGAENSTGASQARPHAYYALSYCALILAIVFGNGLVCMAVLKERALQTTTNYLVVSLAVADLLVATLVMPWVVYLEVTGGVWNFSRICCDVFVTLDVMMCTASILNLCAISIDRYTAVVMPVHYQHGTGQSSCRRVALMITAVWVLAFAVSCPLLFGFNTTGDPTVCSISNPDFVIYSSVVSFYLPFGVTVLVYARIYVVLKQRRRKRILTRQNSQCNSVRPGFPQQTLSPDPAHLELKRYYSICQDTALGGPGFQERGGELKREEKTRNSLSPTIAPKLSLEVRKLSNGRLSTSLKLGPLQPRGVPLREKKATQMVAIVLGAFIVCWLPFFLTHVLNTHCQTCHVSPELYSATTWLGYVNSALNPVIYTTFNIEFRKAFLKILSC
Chain of 5-HT1E (P28566 whole entry): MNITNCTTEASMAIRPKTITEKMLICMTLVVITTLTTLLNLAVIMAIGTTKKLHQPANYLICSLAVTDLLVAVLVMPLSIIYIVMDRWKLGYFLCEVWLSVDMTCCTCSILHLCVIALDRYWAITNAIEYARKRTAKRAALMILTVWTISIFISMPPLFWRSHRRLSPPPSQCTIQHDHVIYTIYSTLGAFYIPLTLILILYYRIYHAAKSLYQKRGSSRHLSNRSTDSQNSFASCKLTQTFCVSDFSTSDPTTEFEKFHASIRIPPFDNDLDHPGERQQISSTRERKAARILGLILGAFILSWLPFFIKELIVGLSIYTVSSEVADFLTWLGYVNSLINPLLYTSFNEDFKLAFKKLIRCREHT
Chain of NET (P23975 whole entry): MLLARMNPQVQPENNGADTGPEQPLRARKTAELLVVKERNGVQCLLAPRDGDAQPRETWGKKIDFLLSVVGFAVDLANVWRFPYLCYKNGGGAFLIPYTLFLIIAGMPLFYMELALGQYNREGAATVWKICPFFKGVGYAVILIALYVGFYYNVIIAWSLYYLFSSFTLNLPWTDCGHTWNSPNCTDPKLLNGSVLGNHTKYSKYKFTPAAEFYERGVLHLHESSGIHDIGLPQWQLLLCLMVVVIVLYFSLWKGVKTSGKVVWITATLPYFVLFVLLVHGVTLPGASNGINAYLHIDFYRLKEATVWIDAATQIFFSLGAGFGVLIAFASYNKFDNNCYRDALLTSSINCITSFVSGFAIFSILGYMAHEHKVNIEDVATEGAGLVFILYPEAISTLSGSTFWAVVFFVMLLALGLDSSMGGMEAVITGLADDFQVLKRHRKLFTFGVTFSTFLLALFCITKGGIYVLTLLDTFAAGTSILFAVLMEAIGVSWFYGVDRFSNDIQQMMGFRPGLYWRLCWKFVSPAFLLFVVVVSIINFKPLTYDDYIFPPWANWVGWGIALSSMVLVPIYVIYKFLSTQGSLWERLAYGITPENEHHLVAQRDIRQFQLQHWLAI
Chain of 5-HT2B (P41595 whole entry): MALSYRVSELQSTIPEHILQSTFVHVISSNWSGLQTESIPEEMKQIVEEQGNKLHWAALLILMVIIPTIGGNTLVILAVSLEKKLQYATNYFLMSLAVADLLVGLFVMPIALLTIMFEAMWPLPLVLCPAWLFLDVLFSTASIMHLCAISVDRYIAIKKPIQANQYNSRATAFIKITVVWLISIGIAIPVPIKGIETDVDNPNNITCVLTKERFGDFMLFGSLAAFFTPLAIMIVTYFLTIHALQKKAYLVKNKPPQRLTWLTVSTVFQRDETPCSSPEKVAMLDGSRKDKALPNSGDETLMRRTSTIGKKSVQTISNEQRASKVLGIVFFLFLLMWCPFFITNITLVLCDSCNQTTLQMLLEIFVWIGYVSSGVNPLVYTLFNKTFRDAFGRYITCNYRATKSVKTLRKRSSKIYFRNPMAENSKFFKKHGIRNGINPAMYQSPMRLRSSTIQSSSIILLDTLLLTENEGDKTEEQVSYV
Chain of DAT (Q01959 whole entry): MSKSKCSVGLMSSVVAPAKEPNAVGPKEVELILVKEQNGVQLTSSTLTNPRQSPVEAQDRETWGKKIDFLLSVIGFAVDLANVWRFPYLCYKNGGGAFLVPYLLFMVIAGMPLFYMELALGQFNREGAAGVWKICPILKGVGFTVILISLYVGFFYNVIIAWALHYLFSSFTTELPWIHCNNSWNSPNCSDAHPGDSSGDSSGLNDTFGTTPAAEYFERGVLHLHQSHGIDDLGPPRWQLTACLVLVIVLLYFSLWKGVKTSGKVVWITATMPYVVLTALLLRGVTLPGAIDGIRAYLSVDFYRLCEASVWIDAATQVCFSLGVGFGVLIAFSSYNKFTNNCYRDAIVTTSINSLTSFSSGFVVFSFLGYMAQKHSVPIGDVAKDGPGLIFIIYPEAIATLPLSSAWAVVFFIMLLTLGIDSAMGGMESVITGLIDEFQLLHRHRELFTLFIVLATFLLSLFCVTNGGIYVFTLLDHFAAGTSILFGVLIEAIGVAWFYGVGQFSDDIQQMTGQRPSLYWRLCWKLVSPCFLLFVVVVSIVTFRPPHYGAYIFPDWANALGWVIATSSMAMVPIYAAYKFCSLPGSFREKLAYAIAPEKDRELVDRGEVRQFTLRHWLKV

Consider `NC1Cc2ccccc2C1` [2-AI, 2-aminoindan], for which the Ki at 5-HT1E, on 5-HT2B, at 5-HT2C, on 5-HT7, at α1B and on α1D was more than 10 µM throughout. Moreover, the Ki at α2C was 0.041 ± 0.026 µM; at β1, more than 10 µM; on D3, more than 10 µM; at DAT, more than 10 µM; on NET, more than 10 µM. The “substitution for (+)-amphetamine” value with rats (ref Glennon et al. 1984) was “fully substituted”. For the same compound, the “substitution in (+)-amphetamine-trained rats” value with rats (setting [1]) is listed as “partial substitution”.

`COc1cc2c(cc1C)CC(N)C2` (stereo not shown) [MMAI, 5-methoxy-6-methyl-2-aminoindan]: the Ki is more than 10 µM on 5-HT1E; 0.902 ± 0.445 µM on 5-HT2B; more than 10 µM at 5-HT2C; 1.01 µM on 5-HT7; more than 10 µM on α1B; more than 10 µM at α1D. For the same compound, the Ki is 1.38 µM at α2C; more than 10 µM at β1; more than 10 µM at D3; more than 10 µM at DAT; more than 10 µM on NET. Also, the “fold lower affinity for α2C compared to 2-AI” value on α2C is 30 fold. Moreover, the “substitution in (+)-amphetamine-trained rats” value in the assay with rats (ref Johnson et al. 1991b) is recorded as “did not substitute”. Moreover, the “substitution in rats trained to discriminate MDMA and S-(+)-MBDB” value with rats (ref Johnson et al. 1991b) is reported as “fully substituted”.

On to `COc1ccc2c(c1)CC(N)C2` (stereo not shown) [5-MeO-AI, 5-methoxy-2-aminoindan], for which the Ki on 5-HT1E is more than 10 µM; on 5-HT2B, 4.79 µM; at 5-HT2C, more than 10 µM; on 5-HT7 it was more than 10 µM; at α1B, more than 10 µM; at α1D it was more than 10 µM. The Ki on α2C is 1.22 µM; at β1 it was more than 10 µM; on D3, more than 10 µM; on DAT, more than 10 µM; at NET it was more than 10 µM. Besides, the “fold lower affinity for α2C compared to 2-AI” value at α2C is recorded as 30 fold.

Take `NC1Cc2cc3c(cc2C1)OCO3` [MDAI, 5,6-methylenedioxy-2-aminoindan]: the Ki on 5-HT1E, on 5-HT2B, on 5-HT2C, at 5-HT7, at α1B and on α1D was more than 10 µM each time. The Ki is 0.363 ± 0.219 µM on α2C; more than 10 µM at β1; more than 10 µM at D3; more than 10 µM on DAT; more than 10 µM on NET. Further, at 5-HT2B (at 10 μM, primary binding assay), the “displacement at 5-HT2B receptor” value is less than 50%. Moreover, the “drug-appropriate responding in (+)-methamphetamine-trained rats” value with rats (ref Gatch et al. 2016) is reported as 75%. Besides, the “substitution in cocaine-trained rats” value in the assay on rats (ref Gatch et al. 2016) is given as “full substitution”. In addition, the “substitution for MDMA and S-(+)-MBDB” value in the assay on rats (ref Nichols et al. 1990, Oberlender and Nichols 1990, Malmusi et al. 1996, Gatch et al. 2016) was “substituted”. In the assay on rats (setting [1]), the “substitution in (+)-amphetamine-trained rats” value is recorded as “did not substitute”.
